Each structure is given as a SMILES string. Several values for one entry are separate records, joined by “and”; a condition that tells them apart may be missing. Equal values may be shown once.

From ChEMBL document CHEMBL1129730, “Mechanistic studies on the inactivation of papain by epoxysuccinyl inhibitors” (J Med Chem, 1996) come the findings set out here.

Assay [1] addresses T1, Papain (Carica papaya, UniProt P00784).
T1 sequence (P00784 whole entry): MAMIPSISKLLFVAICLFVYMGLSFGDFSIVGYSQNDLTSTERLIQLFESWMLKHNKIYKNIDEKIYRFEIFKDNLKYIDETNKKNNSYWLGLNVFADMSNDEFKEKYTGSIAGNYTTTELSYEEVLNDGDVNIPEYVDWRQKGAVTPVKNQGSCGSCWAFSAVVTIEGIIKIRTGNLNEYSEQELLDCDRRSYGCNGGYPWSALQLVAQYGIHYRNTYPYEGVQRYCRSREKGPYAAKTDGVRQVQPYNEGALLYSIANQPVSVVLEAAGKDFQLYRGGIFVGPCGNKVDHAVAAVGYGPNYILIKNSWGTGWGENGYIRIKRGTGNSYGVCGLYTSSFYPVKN
The assay can be described thus: Kinetic constant Apparent binding constant (Ki`) for the inhibition of papain conducted in 0.1 M phosphate, pH 6.8, at 30 degree C.

Assay [2] deals with T2, Papain (Carica papaya) (UniProt P00784).
T2 sequence (whole entry): T1 sequence (P00784 whole entry)
The assay can be described thus: Kinetic constant First order rate of inactivation (K3) for the inhibition of papain conducted in 0.1 M phosphate, pH 6.8, at 30 degree C.

Assay [3] addresses T2, Papain (Carica papaya). The assay can be described thus: Inhibition of papain depend on Acid dissociation constant of the protein Papain.

For `CC(=O)[C@H]1O[C@@H]1C(=O)N[C@@H](CC(C)C)C(=O)NCCC(C)C`, the Ki in assay [1] was determined as 170 µM. In addition, in assay [2], the k3 amounted to 0.47 s⁻¹.

For the compound `CC(C)CCNC(=O)[C@H](CC(C)C)NC(=O)[C@H]1O[C@@H]1C(=O)O` [E-64C], in assay [1], the Ki came to 2.4 µM. For the same compound, the k3 in assay [2] was 0.71 s⁻¹. Also, in assay [3], the pKa was 3.93 and 4.09.

For the compound `CC(C)CCNC(=O)[C@H](CC(C)C)NC(=O)[C@H]1O[C@@H]1C(=O)NO`, the Ki in assay [1] was 6.6 µM. Besides, in assay [2], the k3 was determined as 0.67 s⁻¹.

As to `CC(C)CCNC(=O)[C@H](CC(C)C)NC(=O)[C@H]1O[C@@H]1CO`, in assay [1], the Ki is 4400 µM. Besides, the k3 in assay [2] worked out at 0.019 s⁻¹.

In the case of `CCOC(=O)[C@H]1O[C@@H]1C(=O)N[C@@H](CC(C)C)C(=O)NCCC(C)C` [ALOXISTATIN], the Ki in assay [1] was 52 µM. The same compound displayed a k3 in assay [2] of 0.059 s⁻¹.

Consider `CC(C)CCNC(=O)[C@H](CC(C)C)NC(=O)[C@H]1O[C@@H]1C(N)=O`, for which the Ki in assay [1] was determined as 51 µM. In assay [2], the k3 was 0.35 s⁻¹.
